Entries after “also recorded” stand apart in the source; their conditions may differ. Where two headings read alike, the source gives them in different places.
Columns and labels:
[1] = tested on: nematode C. elegans; settings: cited from earlier work
[2] = tested on: C. elegans; settings: cited from earlier work
[3] = tested on: larvae of the lepidopteran Helicoverpa armigera; settings: in vivo; cited from earlier work
[4] = tested on: insects; settings: in vivo; cited from earlier work
[5] = tested on: C. elegans of the Bristol N2 strain; assay: Automated feeding assay (bead ingestion, pharyngeal pumping); assay type: in vivo, Caenorhabditis elegans; settings: for Effect of 0.325 mM compound on serotonin-stimulated (0.325 mM) bead ingestion: 0.325 mM compound plus 0.325 mM serotonin; for Effect of 0.325 mM compound on bead ingestion: no added serotonin; for IC50: Caenorhabditis elegans
Text: An automated screening assay has been developed and described in the present Applicants' co-pending International patent application No. PCT/AU00/01476 (WO 01/40500). Using the screening assay, twenty novel tropanyl ester compounds as well as tropanyl dichlorobenzoate were screened for nematicidal activity.
The assay used was essentially that described in WO 01/40500 with minor modifications. The protocol was as follows:
(1.) Plate Culture. C. elegans of the Bristol N2 strain (Brenner, 1974) were cultured at room temperature on HMS174 E. coli bacteria (Campbell et al., 1978) spread on a 150 mm diameter petri dish containing enhanced NGM 1.7% (w/v) (Avery and Horvitz, 1990) agar until a good population of adult nematodes was present, but food reserves had not been exhausted.
(2.) The nematodes were collected by washing each plate with 10 mL and then 5 mL of M9 buffer plate and filtering over a 20 μm nylon mesh (Nytal—Catalogue no. BCNY-HDO02-20) to retain adult nematodes. The nematodes from 7-8 of these 150 mm plates were collected together and placed on a 63 μm mesh filter (Nytal—product code PA-25-43) and washed with 200-250 mL of M9 buffer or MilliQ water. This procedure allows the passage of nematodes whilst retaining larger debris. Finally the nematodes were collected over a 20 μm mesh.
(3.) Adult nematodes were collected from the mesh using a pasteur pipette and allowed to settle in an eppendorf tube at 1×g for 10 minutes. This packed volume was used to calculate quantities of nematodes for experiments and assays, although nematodes were resuspended in 2-10 volumes of M9 buffer for transfer. Quantitative transfers of nematodes were performed using a Gilson Pipetman P200 or equivalent and a yellow tip with 5 mm cut off the sharp end.
(4.) Assays were performed in 24 well tissue-lture clusters (Nunc multidish). The final assay volume was 230 μL comprising the following sequential additions: • (i) M9 buffer—sufficient to bring the final volume to 230 μL • ([…]) Any other pharmacological agents—≦1.5 μL of drug in DMSO (or water) • (iv) Nematodes—150 μL of a 10% (v/v) stock in M9 • (v) Fluorescent beads—23 μL of a 1% w/v solution in M9.
Where serotonin or other pharmacological agents were omitted, the volume was adjusted with M9 buffer. Control experiments included 1.5 μL of DMSO except in the case of ondansetron, which was added from an aqueous stock.
The fluorescent beads were 1.30 μm uniformly dyed microsphere beads with a hydrophilic surface-coating. The fluorescence excitation maximum was 420 nm and the emission maximum was 485 nm (catalogue code FC04F, carboxylate-modified polystyrene/polyvinyl copolymer, manufactured and supplied by Bangs Laboratories, Inc. 9025 Technology Drive, Fishers, INDIANA 46038-2886, USA).
(5.) The nematodes were incubated for 60 minutes after the addition of the fluorescent beads at room temperature (≈21° C.) without shaking. The assay was terminated by the addition of 20 μL of 100 mM sodium azide.
(6.) Two aliquots of 100 μl each were transferred from each well of the 24 well cluster to a pair of wells in a pre-blocked mesh-bottomed plate (see below for details of the mesh-bottomed plate) and the buffer/bead suspension was immediately aspirated away through the filter mesh using a Millipore Multiscreen vacuum manifold.
(7.) A total of eight washing steps were performed. Each of the first five washes used 200 μL of 1%(w/v) sodium lauryl sulphate (SDS—Sigma) in M9 buffer. The third and fifth washes involved pipetting the solution up and down in the wells of the plate ten times each wash. The SDS washes were followed by three washes with 200 μL of M9 buffer only. At the end of each washing step, solutions were aspirated away through the mesh using a Millipore Multiscreen vacuum manifold. […]

[6] = tested on: aphid Myzus persicae; settings: in vivo; cited from earlier work
[7] = listed as tropanyl dichlorobenzoate

In the case of `CN1[C@@H]2CC[C@H]1CC(OC(=O)c1cc(Cl)cc(Cl)c1)C2` (stereo partly shown) [MDL 72222, 3,5-dichlorobenzoic acid tropan-3-yl ester], the “Effect on pharyngeal pumping” value ([1]; as summarised in the background, no concentration given) is listed as “profoundly inhibited”, the “Effect on serotonin-stimulated rate of pharyngeal pumping” value ([1]; drug 0.325 mM, serotonin 0.325 mM) is listed as “antagonised the stimulatory effect” and the “Detrimental effects on C. elegans” value ([2]; in vivo, listed as tropanyl dichlorobenzoate) is listed as “dose-dependent mortality and other detrimental effects; also recorded: dose-dependent detrimental effects, including lethality”. The “Lowest effective concentration in the chronic toxicity assay” value ([2]; reported previously in WO 01/61000) was roughly 11 µM, the “Effect on larval growth rates” value [3] was “reduced growth rates” and the “Detrimental effects in insects” value [4] was “significant detrimental effects, including some mortality”. For the same compound, the “Effect of 0.325 mM compound on serotonin-stimulated (0.325 mM) bead ingestion” value [5] was “reverses strongly”, the “Effect of 0.325 mM compound on serotonin-stimulated (0.325 mM) bead ingestion” value [5, 7] was “strongly reversed” and the “Effect of 0.325 mM compound on bead ingestion” value [5] was “inhibits”. For the same compound, the “Effect of 0.325 mM compound on bead ingestion” value [5, 7] was “reduced”, the IC50 ([5]; in the absence of added serotonin, estimated (FIG. 2), read-out: IC50 (dose that depressed the basal bead ingestion rate by 50%)) was 11 µM and the IC50 ([5]; in the presence of 1 mM serotonin, estimated from log dose response curves (FIG. 2), read-out: IC50 (inhibitory concentration 50%) for bead ingestion) was 40 µM. The “Detrimental effects on Myzus persicae” value [6] was “dose-dependent detrimental effects, including lethality”.

Source: patent publication US20050054680A1, “Agonists and antagonists of 5h3-like receptors of invertebrates as pesticides” (priority 2001, published 2005)
